Read-outs that look alike come from different tables or passages of the source. Where a SMILES comes first, the peptide text is derived from it. [ ]: non-standard residue; d: D form. The star is where a group is joined. Sta = CC(C)C[C@H](N)[C@@H](O)CC(=O)O; Isovaleryl = CC(C)CC(=O)*
B1: ovostatin: protein reported to at least partially inhibit PCP activity (protein, UniProt P20740 37-1473, looked up)
Ovostatin: KEPEPQYVLMVPAVLQSDSPSQVCLQFFNLNQTISVRVVLEYDTINTTIFEKNTTTSNGLQCLNFMIPPVTSVSLAFISFTAKGTTFDLKERRSVMIWNMESFVFVQTDKPIYKPGQSVMFRVVALDFNFKPVQEMYPLIAVQDPQNNRIFQWQNVTSEINIVQIEFPLTEEPILGNYKIIVTKKSGERTSHSFLVEEYVLPKFDVTVTAPGSLTVMDSELTVKICAVYTYGQPVEGKVQLSVCRDFDSYGRCKKSPVCQSFTKDLDTDGCLSHILSSKVFELNRIGYKRNLDVKAIVTEKEQVCNLTATQSISITQVMSSLQFENVDHHYRRGIPYFGQIKLVDKDNSPISNKVIQLFVNNKNTHNFTTDINGIAPFSIDTSKIFDPELSLKALYKTSDQCHSEGWIEPSYPDASLSVQRLYSWTSSFVRIEPLWKDMSCGQKRMITVYYILNTEGYEHINIVNFYYVGMAKGKIVLTGEIKVNIQADQNGTFMIPLVVNEKMAPALRLLVYMLHPAKELVADSVRFSIEKCFKNKVQLQFSEKQMLTTSNVSLVIEAAANSFCAVRAVDKSMLLLKSETELSAETIYNLHPIQDLQGYIFNGLNLEDDPQDPCVSSDDIFHKGLYYRPLTSGLGPDVYQFLRDMGMKFFTNSKIRQPTVCTRETVRPPSYFLNAGFTASTHHVKLSAEVAREERGKRHILETIREFFPETWIWDIILINSTGKASVSYTIPDTITEWKASAFCVEELAGFGMSVPATLTAFQPFFVDLTLPYSIIHGEDFLVRANVFNYLNHCIKINVLLLESLDYQAKLISPEDDGCVCAKIRKSYVWNIFPKGTGDVLFSITAETNDDEACEEEALRNIRIDYRDTQIRALLVEPEGIRREETQNFLICMKDDVISQDVAIDLPTNVVEGSPRPSFSVVGDIMGTAIQNVHQLLQMPFGNGEQNMVLFAPNIYVLDYLDKTRQLSEDVKSKTIGYLVSGYQKQLSYKHPDGSYSTFGIRDKEGNTWLTAFVYKSFAEASRFIYIDDNVQAQTLIWLATKQKTDGCFQSTGILVNNAMKGGVENELSLSAYITIALLEAGHSMSHTVIRNAFYCLETASEKNITDIYTQALVAYAFCLAGKAEICESFLRELQKSAKEVDGSKYWEQNQRSAPEKSHLLDHVQSTDVEITSYVLLALLYKPNRSQEDLTKASAIVQWIIRQQNSYGGFASMQDTVVALQALAAYGAATYNSVTQNVIKINSKNTFEKVFTVNNENRLLLQQTPLPQVPGKYSLTVNGTGCVLIQTALRYNIHLPEGAFGFSLSVQTSNASCPRDQPGKFDIVLISSYTGKRSSSNMVIIDVKMLSGFVPVKSSLDQLIDDHTVMQVEYKKNHVLLYLGNILQKRRKEVTFSVEQDFVVTHPKPAPVQIYDYYETEEYAVAEYMSLCRGVVEEMG
B2: α2-Macroglobuline: protein reported to at least partially inhibit PCP activity (protein, UniProt P01023 24-1474, looked up)
Alpha-2-macroglobulin: SVSGKPQYMVLVPSLLHTETTEKGCVLLSYLNETVTVSASLESVRGNRSLFTDLEAENDVLHCVAFAVPKSSSNEEVMFLTVQVKGPTQEFKKRTTVMVKNEDSLVFVQTDKSIYKPGQTVKFRVVSMDENFHPLNELIPLVYIQDPKGNRIAQWQSFQLEGGLKQFSFPLSSEPFQGSYKVVVQKKSGGRTEHPFTVEEFVLPKFEVQVTVPKIITILEEEMNVSVCGLYTYGKPVPGHVTVSICRKYSDASDCHGEDSQAFCEKFSGQLNSHGCFYQQVKTKVFQLKRKEYEMKLHTEAQIQEEGTVVELTGRQSSEITRTITKLSFVKVDSHFRQGIPFFGQVRLVDGKGVPIPNKVIFIRGNEANYYSNATTDEHGLVQFSINTTNVMGTSLTVRVNYKDRSPCYGYQWVSEEHEEAHHTAYLVFSPSKSFVHLEPMSHELPCGHTQTVQAHYILNGGTLLGLKKLSFYYLIMAKGGIVRTGTHGLLVKQEDMKGHFSISIPVKSDIAPVARLLIYAVLPTGDVIGDSAKYDVENCLANKVDLSFSPSQSLPASHAHLRVTAAPQSVCALRAVDQSVLLMKPDAELSASSVYNLLPEKDLTGFPGPLNDQDNEDCINRHNVYINGITYTPVSSTNEKDMYSFLEDMGLKAFTNSKIRKPKMCPQLQQYEMHGPEGLRVGFYESDVMGRGHARLVHVEEPHTETVRKYFPETWIWDLVVVNSAGVAEVGVTVPDTITEWKAGAFCLSEDAGLGISSTASLRAFQPFFVELTMPYSVIRGEAFTLKATVLNYLPKCIRVSVQLEASPAFLAVPVEKEQAPHCICANGRQTVSWAVTPKSLGNVNFTVSAEALESQELCGTEVPSVPEHGRKDTVIKPLLVEPEGLEKETTFNSLLCPSGGEVSEELSLKLPPNVVEESARASVSVLGDILGSAMQNTQNLLQMPYGCGEQNMVLFAPNIYVLDYLNETQQLTPEIKSKAIGYLNTGYQRQLNYKHYDGSYSTFGERYGRNQGNTWLTAFVLKTFAQARAYIFIDEAHITQALIWLSQRQKDNGCFRSSGSLLNNAIKGGVEDEVTLSAYITIALLEIPLTVTHPVVRNALFCLESAWKTAQEGDHGSHVYTKALLAYAFALAGNQDKRKEVLKSLNEEAVKKDNSVHWERPQKPKAPVGHFYEPQAPSAEVEMTSYVLLAYLTAQPAPTSEDLTSATNIVKWITKQQNAQGGFSSTQDTVVALHALSKYGAATFTRTGKAAQVTIQSSGTFSSKFQVDNNNRLLLQQVSLPELPGEYSMKVTGEGCVYLQTSLKYNILPEKEEFPFALGVQTLPQTCDEPKAHTSFQISLSVSYTGSRSASNMAIVDVKMVSGFIPLKPTVKMLERSNHVSRTEVSSNHVLIYLDKVSNQTLSLFFTVLQDVPVRDLKPAIVKVYDYYETDEFAIAEYNAPCSKDLGNA

Columns and labels:
PCP = conditions: cited from earlier work
[1] = Dynamic Vapour Sorption (moisture sorption); assay type: physicochemical
Method: Melting points were determined using open glass capillary tubes and a Gallenkamp melting point apparatus and are uncorrected. Nuclear magnetic resonance (NMR) data were obtained using Varian Unity Inova-400, Varian Unity Inova-300 or Bruker AC300 spectrometers and are quoted in parts per million from tetramethylsilane. Mass spectral (MS) data were obtained on a Finnigan Mat. TSQ 7000 or a Fisons Instruments Trio 1000. The calculated and observed ions quoted refer to the isotopic composition of lowest mass. Infra red (1R) spectra were measured using a Nicolet Magna 550 Fourier transform infra-red spectrometer. Flash chromatography refers to column chromatography on silica gel (Kieselgel 60, 230-400 mesh, from E. Merck, Darmstadt. Kieselgel 60 F254 plates from E. Merck were used for TLC, and compounds were visualised using UV light, 5% aqueous potassium permanagate or Dragendorff's reagent (oversprayed with aqueous sodium nitrite). Thermal analyses by Differential Scanning Calorimetry (DSC) and ThermoGravimetric Analysis (TGA) were obtained using Perkin Elmer DSC7 and TGA7. Moisture sorption characteristics were recorded using Surface Measurement Systems Ltd. Automated Water Sorption Analyser DVS 1. Water content was determined on a Mitsubishi CA100 (Coulometric Karl Fisher Titrator). Powder X-ray diffraction (PXRD) pattern was determined using a Siemens D5000 powder X-ray diffractometer fitted with an automatic sample changer, a theta-theta goniometer, automatic beam divergence slits, a secondary monochromator and a scintillation counter. Other measurements were taken using standard equipment. Hexane refers to a mixture of hexanes (hplc grade) b.p. 65-70° C. Ether refers to diethyl ether. Acetic acid refers to glacial acetic acid. 1-Hydroxy-7-aza-1H-1,2,3-benzotriazole (HOAt), N-[(dimethylamino)-1H-1,2,3-triazolo[4,5-b]pyridin-1-ylmethylene]-N-methylmethaninium hexafluorophosphate N-oxide (HATU) and 7-azabenzotriazol-1-yloxytris(pyrrolidino)phosphonium hexafluorophosphate (PyAOP) were purchased from PerSeptive Biosystems U.K. Ltd. “DIPE” refers to diisopropyl ether. Reverse-phase silica gel for flash chromatography was obtained from Fluka (Fluka 100, C18, 40-63μ). Pentane refers to High Performance Liquid Chromatography (HPLC) grade n-pentane (b.pt.35-37° C.). Nomenclature has been allocated using a program available from IUPAC. Standard abbreviations are used throughout, e.g. “Me” is methyl, “Et” is ethyl, “Pr” is propyl, “Ph” is phenyl, etc. It was noticed that during certain repetitions of the methods disclosed in the Examples and Preparations that some racemisation appeared to have taken place. It was found in some cases that specific desired enantiomers can be separated from mixtures thereof by routine methods such as by differential crystallisation. • ^aHPLC autopurification performed using 2 columns—Phenomonex LUNA C8 150×21.2 mm, 10 μm and Phenomonex […] C18 150×21.2 mm, […], eluting with a gradient system of organic solvent [ammonium acetate (aq) 100 mM:acetonitrile (1:9)]:aqueous solvent [ammonium acetate (aq) 100 mM:acetonitrile (9:1)] • ^bHPLC autopurification performed using 2 columns—Phenomonex LUNA C8 150×21.2 mm, 10 μm and Phenomonex […] C18 150×21.2 mm, 5 μm, eluting with a gradient system of organic solvent (acetonitrile):aqueous solvent (0.1% aqueous trifluoroacetic acid)

| Molecule | PCP inhibition (in words) (PCP; literature reports) | further results |
| --- | --- | --- |
| [Cu+2] [Cu^2+] | inhibitory at low concentrations |  |
| CC(C)C[C@H](NC(=O)[C@@H](NC(=O)N[C@@H](Cc1ccccc1)C(=O)O)[C@@H]1CCN=C(N)N1)C(=O)N[C@H](C=O)Cc1ccccc1 [chymostatin] | relatively strong inhibitors |  |
| O=C(O)CNC(=O)c1noc([C@H](CCCC2CCCCC2)CC(=O)NO)n1 [Example 11, 2-{[(5-{(1R)-4-Cyclohexyl-1-[2-(hydroxyamino)-2-oxoethyl]butyl}-1,2,4-oxadiazol-3-yl)carbonyl]amino}acetic Acid] |  | melting point: 141 to 142 °C |
| NCCCC[C@H](N)C(=O)O [lysine] | inhibited |  |
| [Cd+2] [Cd^2+] | inhibitory at low concentrations |  |
| N=C(N)NCCC[C@H](N)C(=O)O [arginine] | inhibited |  |
| CCCCCCCCCCCCOS(=O)(=O)[O-].[Na+] [SDS] | inhibitory at low concentrations |  |
| O[C@H](CS)[C@H](O)CS (racemic) [Dithiothreitol] | inhibitory at low concentrations |  |
| NC(=O)c1noc([C@H](CCCC2CCCCC2)CC(=O)NO)n1 [Example 2(b), 5-{(1R)-4-Cyclohexyl-1-[2-(hydroxyamino)-2-oxoethyl]butyl}-1,2,4-oxadiazole-3-carboxamide Monohydrate] |  | Dynamic Vapour Sorption ([1]; 2% RH (30° C.)): 4.84 % w/w; Dynamic Vapour Sorption ([1]; 20% RH (30° C.)): 5.17 % w/w; Dynamic Vapour Sorption ([1]; below 1% RH (30° C.)): significant dehydration |
| CC(C)CC(=O)N[C@H](C(=O)N[C@H](C(=O)N[C@@H](CC(C)C)[C@@H](O)CC(=O)N[C@@H](C)C(=O)N[C@@H](CC(C)C)[C@@H](O)CC(=O)O)C(C)C)C(C)C [pepstatin A] (Isovaleryl-VV[Sta]A[Sta]-OH) | relatively strong inhibitors |  |
| NC(=O)c1noc([C@H](CCCC2CCCCC2)CC(=O)NO)n1 [Example 2(c), 5-{(1R)-4-Cyclohexyl-1-[2-(hydroxyamino)-2-oxoethyl]butyl}-1,2,4-oxadiazole-3-carboxamide (Anhydrous)] |  | Dynamic Vapour Sorption ([1]; 15% RH (30° C.)): 0.18 % w/w; Dynamic Vapour Sorption ([1]; 30% RH (30° C.)): 0.23 % w/w; Dynamic Vapour Sorption, hydration behaviour ([1]; 60% RH (30° C.), converting to the monohydrate (XRD)): hydrates slowly; Dynamic Vapour Sorption, equilibrium ([1]; 90% RH (30° C.)): 5.3 % w/w |
| [Zn+2] [Zn^2+] | inhibitory at low concentrations |  |
| Tris-HCl [Tris-HCl buffer] |  | PCP inhibition (in words) (PCP; buffer concentration 0.2-0.5M): markedly inhibited activity |
| concanavalin A | inhibitory at low concentrations |  |
| O=C(C[C@@H](CCCC1CCCCC1)c1nc(C(=O)N2CC(N3CCOCC3)C2)no1)NO [Example 14, (3R)-6-Cyclohexyl-N-hydroxy-3-(3-{[3-(4-morpholinyl)-1-azetidinyl]carbonyl}-1,2,4-oxadiazol-5-yl)hexanamide] |  | melting point: 52 to 63 °C |
| B1 | at least partially inhibit |  |
| B2 | at least partially inhibit |  |

Reference: patent publication US6897306B2, “3-heterocyclylpropanohydroxamic acids” (Pfizer Products, Inc., priority 1999, dated 2005)
